How the values were obtained:
[1] = Time-resolved fluorescence lifetime (TCSPC); type: physicochemical
Protocol: Fluorescence lifetimes were determined by using the Time-Correlation Single Photon Counting (TCSPC) accessory to the FluroMax-4 (Horiba, NJ). NanoLED pulse light sources at wavelengths of 352 nm and 390 nm were used for excitation. For each decay curve, 10,000 photons were collected. Fluorescence lifetime decays were fitted with an exponential series according to equation 1 below:
[formula] where F(t) is the lifetime decay function with respect to time t, Ti is the lifetime value of the emitting species, A is the background offset, and Bi is the pre-exponential function of the emitting species. The method of least squares was used to quantify χ^2 based on the decay data and the fitting function, where χ^2 values smaller than 1.2 indicates a good fit; and values above 1.2 indicate need for multiple exponential fitting in equation 1. If the lifetime decay is dominated by one emitting species, the equation can be simplified to include only the first two terms. One exponential fitting is good for TPA based fluorophores. However, for DPR based fluorophores, only three exponential fitting gives a χ^2 smaller than 1.2. E. Computational Modeling
(§1) Absorbance Spectra were recorded on Tecan Infinite M200 Pro UV-vis spectroscopy, and fluorescence spectra were recorded on Horiba FluoroMax-4 fluorospectroscopy at concentrations below 0.1 O.D. unless otherwise indicated. Quantum Yields were measured on the Quantum φ Integrating Sphere accessory to the FluoroMax-4, while lifetime measurements were determined through the Time-Correlation Single Photon Counting (TCSPC) accessory to the FluroMax-4. TCSPC was utilized in conjunction with NanoLED pulsed diode light source with peak excitation wavelength at 352 nm and at 10,000 counts peak preset. Emission was collected at the fluorescence λmax, unless otherwise indicated. For all pH-dependence experiments, sample pH was adjusted with sulfuric acid or sodium hydroxide. For all chloride-dependent quenching experiments, magnesium chloride hexahydrate (Sigma Aldrich) was used.
Fluorescence lifetime decays were fitted with an exponential series according to equation 5 below:
[formula] Where F(t) is the lifetime decay function with respect to time t, Ti is the lifetime value of the emitting species, A is the background offset, and Bi is the pre-exponential function of the emitting species. If the lifetime decay is dominated by one emitting species, the equation can be simplified to include only the first two terms. Bi measures the relative amplitude of the specified fluorophore, where the percent contribution of the fluorophore to the lifetime decay, f, is derived from equation 6:
[formula] The method of least squares was used to quantify χ^2 based on the decay data and the fitting function, where χ^2 values under 1.2 indicates a good fit, and values above 1.2 indicate need for additional terms in equation 5. Typically, an additional exponential term was necessary to improve the χ^2 value and account for the presence of a negligible 6 ns species, deemed to stem from by-products of CFD synthesis, impurities, or CFD dimers. Since the contribution from this species was minor, often less than 5%, it was not included in lifetime analysis.

[2] = pH dependence of fluorescence / pH sensing; type: physicochemical
Protocol: as §1
pH Dependence of CA-Cys Fluorescence. Of all solvent and environmental factors that affect fluorescence, CA-Cys appeared to display the greatest sensitivity to changes in pH. […] From a detailed analysis of FIG. 13, four correlations were observed. Fluorescence properties of CA-Cys were invariable from high basicity to a pH of 4.84, from which the excitation λmax began to red-shift from 350 nm, emission λmax began to red-shift from 418 nm, maximum fluorescence intensity began to decrease, and quantum yield began to decrease. As acidity was increased, all four trends continued until pH 2.44, from which the excitation λmax plateaued at 365 nm, emission plateaued at 445 nm, and fluorescence intensity and quantum yield both experienced a short local plateau. Similarly, Stokes shift increased from 67 nm to 80 nm in high acidity. Lastly, absorbance λmax shifted similarly to that of the maximum excitation, while absorbance intensities remained relatively constant. […] All of these patterns were reminiscent of a pH-dependent equilibrium, thus the predominant mechanism of intensity quenching and bathochromic shifts was hypothesized to be attributed to changes in protolytic equilibria. The noticeably linear quenching of intensities past pH 1.63 is discussed with respect to lifetime analysis herein below.
There is a predictable, linear increase in intensity from pH 3 to 4.5. Furthermore, emission collected at a fixed 445 nm is shown in FIG. 15 to be an isobestic point where intensities are independent of pH (up to pH 1), which should greatly improve the functionality of CA-Cys as a pH sensor. In other words, utilizing 445 nm as a dual-wavelength reference point allows for background subtraction and normalization with respect to absorbance or concentration. […] Furthermore, I418 nm/I445 nm increases linearly in the region of pH 3 to 4.5 for accurate determination of pH within this region, plotted and fitted with an R^2 value of 0.982. To sum up, I418 nm/I445 nm values near 1.6 indicate pH above 4.5, values below 0.7 indicate highly acidic environments below pH 3, while any intermediate I418 nm/I445 nm values can determine the exact pH with good accuracy. It is important to note that CA-Cys fluorescence is in accordance with Kasha's rule, i.e. fluorescence occurs from the lowest excited state, S1→S0, thus the emission λmax is independent of the excitation wavelength, and a fluorescence excitation scan at a fixed emission of 418 nm or 445 nm would provide the maximum fluorescence intensity for that emission wavelength. Also of importance is the reliable range of the isobestic point, which is broken at high acidities (noticeably below pH 1) due to dynamic quenching effects.

Row | fluorescence lifetime τ1 ([1]; three exponential model) | fluorescence lifetime τ2 ([1]; three exponential model) | fluorescence lifetime τ3 ([1]; three exponential model) | pH of sharp colorimetric transition [2] | τ ([1]; Anion protolytic state) | τ ([1]; Dianion protolytic state (physiological pH)) | τ ([1]; Neutral protolytic state) | fluorescence lifetime τ ([1]; one-exponential decay, pulsed excitation at 352 nm, maximum emission wavelength) | emission transition (pH) [2] | isobestic absorption point (pH) [2] | I418 nm/I445 nm ratio ([2]; acidic range) | I418 nm/I445 nm ratio ([2]; basic range) | Stokes shift ([2]; before increase (basic)) | emission λmax plateau ([2]; from pH 2.44) | excitation λmax plateau ([2]; from pH 2.44) | quenching of emission intensity at fixed 418 nm ([2]; from pH 4.5-11 to pH 1-3) | emission λmax ([2]; high basicity to pH 4.84) | excitation λmax ([2]; high basicity to pH 4.84) | Stokes shift ([2]; in high acidity) | quenching of overall fluorescence ([2]; upon protonation of first carboxyl group) | SMILES
1 | 0.95 ns | 4.44 ns | 10.35 ns | 9.75 | – | – | – | – | – | – | – | – | – | – | – | – | – | – | – | – | CC(C(=O)O)N1C(=O)C=C(C(=O)O)CC1=O (centres unmarked) [CA-Ala]
2 | – | – | – | – | 11.19 ns | 10.06 ns | Quenched | 10.46 ns | 3.27 | 3.35 | 0.7 | 1.6 | 67 nm | 445 nm | 365 nm | roughly 2.25 fold | 418 nm | 350 nm | 80 nm | 1.37 fold | O=C(O)c1cc2n(c(=O)c1)C(C(=O)O)CS2 (centres unmarked) [CA-Cys]
